Reference: BindingDB's records for doi:10.1007/bf00178951 (Sandoz Pharma, 1994)

Molecular target: G_PROTEIN_RECEP_F1_2 domain-containing protein (Sus scrofa, UniProt I3LCE8)
Sequence (I3LCE8 whole entry): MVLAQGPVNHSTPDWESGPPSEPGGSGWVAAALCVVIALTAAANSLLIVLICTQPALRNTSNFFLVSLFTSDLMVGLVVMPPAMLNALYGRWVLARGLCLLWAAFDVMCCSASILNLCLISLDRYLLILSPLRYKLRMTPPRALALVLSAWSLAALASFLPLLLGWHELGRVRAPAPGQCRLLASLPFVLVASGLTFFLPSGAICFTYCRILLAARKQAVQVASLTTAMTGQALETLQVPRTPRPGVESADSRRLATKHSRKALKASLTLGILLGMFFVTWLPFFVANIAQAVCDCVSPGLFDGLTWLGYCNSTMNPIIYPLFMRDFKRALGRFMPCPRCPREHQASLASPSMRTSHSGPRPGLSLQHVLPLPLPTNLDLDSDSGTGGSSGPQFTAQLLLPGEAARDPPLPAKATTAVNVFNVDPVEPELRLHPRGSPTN

O=C(c1ccc(F)cc1)C1CCN(CCn2c(=O)[nH]c3ccccc3c2=O)CC1 [3-(2-{4-[(4-fluorophenyl)carbonyl]piperidin-1-yl}ethyl)-1,2,3,4-tetrahydroquinazoline-2,4-dione]
Ki: > 10 µM
